Measured values as given in PubChem BioAssay (NCI).
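Interpolation was linear, between the two tested concentrations surrounding the appropriate level; five concentrations were tested over 48 hours in 96-well plates. Abbreviation: GI50, concentration required for 50% inhibition of growth. TGI: concentration producing complete growth inhibition.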

Legend:
Experiment in all cases: NCI-60 cell line screen, 48 h
786-0 renal = system: 786-0 renal
A498 renal = system: A498 renal
A549 NSCLC = system: A549 NSCLC
ACHN renal = system: ACHN renal
BT-549 breast = system: BT-549 breast
CCRF-CEM leukemia = system: CCRF-CEM leukemia
COLO 205 colon = system: COLO 205 colon
DU-145 prostate = system: DU-145 prostate
EKVX NSCLC = system: EKVX NSCLC
HCC-2998 colon = system: HCC-2998 colon
HCT-116 colon = system: HCT-116 colon
HCT-15 colon = system: HCT-15 colon
HL-60(TB) leukemia = system: HL-60(TB) leukemia
HOP-62 NSCLC = system: HOP-62 NSCLC
HOP-92 NSCLC = system: HOP-92 NSCLC
HS 578T breast = system: HS 578T breast
HT29 colon = system: HT29 colon
IGROV1 ovarian = system: IGROV1 ovarian
K-562 leukemia = system: K-562 leukemia
KM12 colon = system: KM12 colon
LOX IMVI melanoma = system: LOX IMVI melanoma
M14 melanoma = system: M14 melanoma
MALME-3M melanoma = system: MALME-3M melanoma
MCF7 breast = system: MCF7 breast
MDA-MB-231 breast = system: MDA-MB-231 breast
MOLT-4 leukemia = system: MOLT-4 leukemia
NCI-H226 lung = system: NCI-H226 lung
NCI-H23 lung = system: NCI-H23 lung
NCI-H460 lung = system: NCI-H460 lung
NCI-H522 lung = system: NCI-H522 lung
NCI/ADR-RES ovarian = system: NCI/ADR-RES ovarian
OVCAR-3 ovarian = system: OVCAR-3 ovarian
OVCAR-4 ovarian = system: OVCAR-4 ovarian
OVCAR-5 ovarian = system: OVCAR-5 ovarian
OVCAR-8 ovarian = system: OVCAR-8 ovarian
PC-3 prostate = system: PC-3 prostate
RPMI-8226 leukemia = system: RPMI-8226 leukemia
RXF 393 renal = system: RXF 393 renal
SF-268 CNS = system: SF-268 CNS
SF-295 CNS = system: SF-295 CNS
SK-MEL-28 melanoma = system: SK-MEL-28 melanoma
SK-MEL-5 melanoma = system: SK-MEL-5 melanoma
SK-OV-3 ovarian = system: SK-OV-3 ovarian
SN12C renal = system: SN12C renal
SNB-19 CNS = system: SNB-19 CNS
SR leukemia = system: SR leukemia
SW-620 colon = system: SW-620 colon
T-47D breast = system: T-47D breast
TK-10 renal = system: TK-10 renal
U251 CNS = system: U251 CNS
UACC-257 melanoma = system: UACC-257 melanoma
UACC-62 melanoma = system: UACC-62 melanoma
UO-31 renal = system: UO-31 renal

SMILES: COc1ccc(Oc2ccccc2NC(=O)CNC(=O)c2cccc3ccccc23)cc1
- GI50 (786-0 renal): 1140 nM
- TGI (786-0 renal): > 25000 nM
- GI50 (A498 renal): 564 nM
- TGI (A498 renal): 10400 nM
- GI50 (A549 NSCLC): 1250 nM
- TGI (A549 NSCLC): > 25000 nM
- GI50 (ACHN renal): 1530 nM
- TGI (ACHN renal): > 25000 nM
- GI50 (BT-549 breast): 1120 nM
- TGI (BT-549 breast): > 25000 nM
- GI50 (CCRF-CEM leukemia): 904 nM
- TGI (CCRF-CEM leukemia): > 25000 nM
- GI50 (COLO 205 colon): 640 nM
- TGI (COLO 205 colon): 2040 nM
- GI50 (DU-145 prostate): 1020 nM
- TGI (DU-145 prostate): > 25000 nM
- GI50 (EKVX NSCLC): 1370 nM
- TGI (EKVX NSCLC): > 25000 nM
- GI50 (HCC-2998 colon): 1410 nM
- TGI (HCC-2998 colon): > 25000 nM
- GI50 (HCT-116 colon): 610 nM
- TGI (HCT-116 colon): > 25000 nM
- GI50 (HCT-15 colon): 590 nM
- TGI (HCT-15 colon): > 25000 nM
- GI50 (HL-60(TB) leukemia): 613 nM
- TGI (HL-60(TB) leukemia): 1710 nM
- GI50 (HOP-62 NSCLC): 717 nM
- TGI (HOP-62 NSCLC): > 25000 nM
- GI50 (HOP-92 NSCLC): > 25000 nM
- TGI (HOP-92 NSCLC): > 25000 nM
- GI50 (HS 578T breast): 1710 nM
- TGI (HS 578T breast): > 25000 nM
- GI50 (HT29 colon): 576 nM
- TGI (HT29 colon): 19400 nM
- GI50 (IGROV1 ovarian): 1570 nM
- TGI (IGROV1 ovarian): > 25000 nM
- GI50 (K-562 leukemia): 143 nM
- TGI (K-562 leukemia): > 25000 nM
- GI50 (KM12 colon): 577 nM
- TGI (KM12 colon): > 25000 nM
- GI50 (LOX IMVI melanoma): 1340 nM
- TGI (LOX IMVI melanoma): > 25000 nM
- GI50 (M14 melanoma): 545 nM
- TGI (M14 melanoma): > 25000 nM
- GI50 (MALME-3M melanoma): > 25000 nM
- TGI (MALME-3M melanoma): > 25000 nM
- GI50 (MCF7 breast): 259 nM
- TGI (MCF7 breast): > 25000 nM
- GI50 (MDA-MB-231 breast): 2250 nM
- TGI (MDA-MB-231 breast): > 25000 nM
- GI50 (MOLT-4 leukemia): 960 nM
- TGI (MOLT-4 leukemia): > 25000 nM
- GI50 (NCI-H226 lung): 4300 nM
- TGI (NCI-H226 lung): > 25000 nM
- GI50 (NCI-H23 lung): 1280 nM
- TGI (NCI-H23 lung): > 25000 nM
- GI50 (NCI-H460 lung): 859 nM
- TGI (NCI-H460 lung): > 25000 nM
- GI50 (NCI-H522 lung): 193 nM
- TGI (NCI-H522 lung): > 25000 nM
- GI50 (NCI/ADR-RES ovarian): 427 nM
- TGI (NCI/ADR-RES ovarian): > 25000 nM
- GI50 (OVCAR-3 ovarian): 387 nM
- TGI (OVCAR-3 ovarian): > 25000 nM
- GI50 (OVCAR-4 ovarian): 2260 nM
- TGI (OVCAR-4 ovarian): > 25000 nM
- GI50 (OVCAR-5 ovarian): 1980 nM
- TGI (OVCAR-5 ovarian): > 25000 nM
- GI50 (OVCAR-8 ovarian): 1150 nM
- TGI (OVCAR-8 ovarian): > 25000 nM
- GI50 (PC-3 prostate): 1060 nM
- TGI (PC-3 prostate): > 25000 nM
- GI50 (RPMI-8226 leukemia): 1130 nM
- TGI (RPMI-8226 leukemia): 8450 nM
- GI50 (RXF 393 renal): 494 nM
- TGI (RXF 393 renal): > 25000 nM
- GI50 (SF-268 CNS): 2030 nM
- TGI (SF-268 CNS): > 25000 nM
- GI50 (SF-295 CNS): 402 nM
- TGI (SF-295 CNS): > 25000 nM
- GI50 (SK-MEL-28 melanoma): 2270 nM
- TGI (SK-MEL-28 melanoma): > 25000 nM
- GI50 (SK-MEL-5 melanoma): 377 nM
- TGI (SK-MEL-5 melanoma): 8410 nM
- GI50 (SK-OV-3 ovarian): 1020 nM
- TGI (SK-OV-3 ovarian): > 25000 nM
- GI50 (SN12C renal): 2300 nM
- TGI (SN12C renal): > 25000 nM
- GI50 (SNB-19 CNS): 1240 nM
- TGI (SNB-19 CNS): > 25000 nM
- GI50 (SR leukemia): 166 nM
- TGI (SR leukemia): > 25000 nM
- GI50 (SW-620 colon): 678 nM
- TGI (SW-620 colon): > 25000 nM
- GI50 (T-47D breast): 2520 nM
- TGI (T-47D breast): 19600 nM
- GI50 (TK-10 renal): 2150 nM
- TGI (TK-10 renal): > 25000 nM
- GI50 (U251 CNS): 1060 nM
- TGI (U251 CNS): > 25000 nM
- GI50 (UACC-257 melanoma): > 25000 nM
- TGI (UACC-257 melanoma): > 25000 nM
- GI50 (UACC-62 melanoma): 559 nM
- TGI (UACC-62 melanoma): > 25000 nM
- GI50 (UO-31 renal): 1490 nM
- TGI (UO-31 renal): > 25000 nM
